Measured values taken from patent US11999759B2, “Boronic acid derivatives and therapeutic uses thereof” (Qpex Biopharma, Inc., priority 2016, dated 2024).

Legend:
[1] = target: CTX-M-14 (Escherichia coli, UniProt Q9L5C7); assay: Inhibition of nitrocefin cleavage by purified CTX-M-14; type: biochemical; settings: nitrocefin reporter substrate; 10 min preincubation at room temperature; read-out: Ki (CTX-M-14, NCF)
Description: (§1) Ki values of inhibition of purified class A, C and D enzymes were determined spectrophotometrically using nitrocefin as reporter substrate. Purified enzymes were mixed with various concentrations of inhibitors in reaction buffer and incubated for 10 min at room temperature. Nitrocefin was added and substrate cleavage profiles were recorded at 490 nm every 10 sec for 10 min.

[2] = target: SHV-12 (Klebsiella pneumoniae, UniProt P0AD64, E235K/G234S/L31Q); assay: Inhibition of nitrocefin cleavage by purified SHV-12; type: biochemical; settings: nitrocefin reporter substrate; 10 min preincubation at room temperature; read-out: Ki (SHV-12, NCF)
Description: as §1

[3] = target: KPC-2 (Klebsiella pneumoniae, UniProt Q9F663); assay: Inhibition of nitrocefin cleavage by purified KPC-2; type: biochemical; settings: nitrocefin reporter substrate; 10 min preincubation at room temperature; read-out: Ki (KPC-2, NCF)
Description: as §1, with “min. These experiments confirmed that the described compounds are inhibitors with a broad-spectrum of activity towards various β-lactamases.” for “min.”

[4] = target: P99 (Enterobacter cloacae, UniProt P05364); assay: biochemical; settings: nitrocefin reporter substrate; 10 min preincubation at room temperature; read-out: Ki (P99, NCF)
Description: as §1

[5] = target: Pa-AmpC (Pseudomonas aeruginosa, UniProt P24735); assay: biochemical; settings: nitrocefin reporter substrate; 10 min preincubation at room temperature; read-out: Ki (Pa-AmpC, NCF)
Description: as §1

[6] = target: OXA-48 (Klebsiella pneumoniae, UniProt Q6XEC0); assay: Inhibition of nitrocefin cleavage by purified OXA-48; type: biochemical; settings: nitrocefin reporter substrate; 10 min preincubation at room temperature; read-out: Ki (OXA-48, NCF)
Description: as §1, with “min. These experiments confirmed that the described compounds are inhibitors with a broad-spectrum of activity towards various β-lactamases.” for “min.”

[7] = target: OXA-23 (Acinetobacter baumannii, UniProt Q9L4P2); assay: Inhibition of nitrocefin cleavage by purified OXA-23; type: biochemical; settings: nitrocefin reporter substrate; 10 min preincubation at room temperature; read-out: Ki (OXA-23, NCF)
Description: as §1, with “min. These experiments confirmed that the described compounds are inhibitors with a broad-spectrum of activity towards various β-lactamases.” for “min.”

[8] = target: VIM-1 (Pseudomonas aeruginosa, UniProt A0A0F7KYQ8); assay: Inhibition of nitrocefin cleavage by purified VIM-1; type: biochemical; settings: nitrocefin reporter substrate; 10 min preincubation at room temperature; read-out: Ki (VIM-1, NCF)
[9] = target: NDM-1 (Klebsiella pneumoniae, UniProt C7C422); assay: Inhibition of imipenem cleavage by purified NDM-1; type: biochemical; settings: imipenem reporter substrate; 37° C.; read-out: Ki (NDM-1, IMI)
Description: Purified enzymes were mixed with various concentrations of inhibitors in reaction buffer and incubated for 10 min at room temperature. Imipenem was added and substrate cleavage profiles were recorded at 294 nm every 30 seconds for 30 minutes at 37° C.

[10] = target: IMP-1 (Serratia marcescens, UniProt P52699); assay: Inhibition of imipenem cleavage by purified IMP-1; type: biochemical; settings: imipenem reporter substrate; 37° C.; read-out: Ki (IMP-1, IMI)
Description: Ki values of inhibition of purified class B enzymes NDM-1 and IMP-1 were determined spectrophotometrically using imipenem as reporter substrate. Purified enzymes were mixed with various concentrations of inhibitors in reaction buffer and incubated for 10 min at room temperature. Imipenem was added and substrate cleavage profiles were recorded at 294 nm every 30 seconds for 30 minutes at 37° C. These experiments further confirmed that the described compounds have the ability to inhibit carbapenemase activity of metallo-beta-lactamases.

[11] = Stability of compound 13 prodrugs in human serum; type: in vitro ADME; settings: 37° C., prodrug 50.0 μg/mL
Description: The rate of hydrolysis for several prodrugs of 13 was evaluated in vitro by measuring their stability in human serum and human liver microsomes. All serum stability experiments were conducted by aliquoting 10 μL of test compound at 500 μg/mL (10× final concentration) in 95:5 water:acetonitrile v/v into 1.5 mL Eppendorf tubes. […] The tubes were then warmed to 37° C. in a water bath along with human serum (Bioreclamations) in a separate tube. Serum esterase activity for each lot of serum used was established by assaying an unrelated ester prodrug as a control. To initiate the reaction, 90 μL of serum was added to tubes for all timepoints using a repeating-tip pipette, thereby bringing the final concentration of test compound to 50 μg/mL and the final concentration of acetonitrile to 0.5% v/v. At each timepoint, the reaction was halted and serum proteins precipitated through the addition of an equal volume of cold acetonitrile containing 25 μg/mL diclofenac as an internal standard. […] Sample analysis for serum stability experiments was conducted using an Agilent 1100 binary pump HPLC equipped with a diode array detector set to monitor absorbance at 286 nm (8 nm bandwidth). […] The samples were analyzed together with appropriate blanks in order to ensure specificity. […] The rate of activation was determined by monitoring the concentration of test compound as follows. The peak area for the analyte was divided by the peak area for the internal standard to give an area ratio. The area ratio for each timepoint was divided by the area ratio for timepoint 0 to give the percent remaining at each timepoint. The natural logarithm of the percent remaining versus time was plotted using Microsoft Excel and fitted to a linear trendline.

[12] = Stability of compound 13 prodrugs in human liver microsomes (HLM); type: in vitro ADME; settings: 0.500 mg/mL human liver microsomes, no cofactors, prodrug 1.00 μM; for half-life at 1 μM: pH 7.4, read-out: Estimated half-life (minutes) (rounded to nearest integer value)
Description: In the meantime, a 20.0 mg/mL solution of human liver microsomes (XenoTech, LLC) was diluted to 1.00 mg/mL (2× final concentration). Esterase activity for each lot of microsomes used was established by assaying an unrelated ester prodrug as a control. Both the Eppendorfs for each timepoint and the diluted liver microsomes were then warmed to 37° C. in a water bath. No cofactors (e.g. NADPH) were added to ensure that only hydrolytic reactions as opposed to reactions mediated by other cofactor-dependent enzymes (e.g. CYP450 enzymes) would take place. To initiate the reaction, 50 μL of diluted human liver microsomes was added to tubes for all timepoints using a repeating-tip pipette, thereby bringing the final concentration of test compound to 1.00 μM and the final concentration of human liver microsomes to 0.500 mg/mL. At each timepoint, the reaction was halted and proteins precipitated through the addition of 200 μL of 10:45:45 water:methanol:acetonitrile v/v/v containing an unrelated ester prodrug at 250 ng/mL as an internal standard. […] Sample analysis for microsome stability experiments was conducted using a 20.0 μL injection on a LEAP PAL autosampler with Agilent 1100 binary pump HPLC coupled to an AB Sciex 3200 QTrap mass spectrometer. […] Detection was in positive mode; source parameters and parent-daughter ion selection criteria were chosen as needed for each compound to achieve an appropriate limit of detection and signal-to-noise ratio. The samples were analyzed together with appropriate blanks in order to ensure specificity. The rate of hydrolysis for each prodrug was determined by monitoring the concentration of test compound as follows. The peak area for the analyte was divided by the peak area for the internal standard to give an area ratio. The area ratio for each of the two replicates at each timepoint was divided by the area ratio for timepoint 0 to give the percent remaining at each timepoint. The natural logarithm of the percent remaining versus time for all replicates was plotted using Microsoft Excel and fitted to a linear trendline.

Chain of KPC-2 (Q9F663 25-293 limits assumed): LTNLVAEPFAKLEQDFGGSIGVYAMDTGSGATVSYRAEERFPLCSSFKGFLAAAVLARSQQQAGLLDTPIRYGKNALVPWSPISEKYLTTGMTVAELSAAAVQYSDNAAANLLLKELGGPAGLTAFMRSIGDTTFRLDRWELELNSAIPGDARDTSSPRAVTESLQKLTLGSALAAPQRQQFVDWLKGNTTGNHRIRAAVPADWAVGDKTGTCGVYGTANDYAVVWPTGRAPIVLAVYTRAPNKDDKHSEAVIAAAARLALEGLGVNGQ
Chain of OXA-23 (Q9L4P2 18-273): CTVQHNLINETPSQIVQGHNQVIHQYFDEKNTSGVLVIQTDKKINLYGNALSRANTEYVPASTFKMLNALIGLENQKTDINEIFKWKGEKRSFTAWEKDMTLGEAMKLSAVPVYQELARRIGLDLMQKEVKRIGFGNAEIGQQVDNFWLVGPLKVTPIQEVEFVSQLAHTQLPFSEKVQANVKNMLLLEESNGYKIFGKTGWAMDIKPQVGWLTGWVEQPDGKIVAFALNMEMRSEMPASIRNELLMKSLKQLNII
Chain of P99 (P05364 21-381): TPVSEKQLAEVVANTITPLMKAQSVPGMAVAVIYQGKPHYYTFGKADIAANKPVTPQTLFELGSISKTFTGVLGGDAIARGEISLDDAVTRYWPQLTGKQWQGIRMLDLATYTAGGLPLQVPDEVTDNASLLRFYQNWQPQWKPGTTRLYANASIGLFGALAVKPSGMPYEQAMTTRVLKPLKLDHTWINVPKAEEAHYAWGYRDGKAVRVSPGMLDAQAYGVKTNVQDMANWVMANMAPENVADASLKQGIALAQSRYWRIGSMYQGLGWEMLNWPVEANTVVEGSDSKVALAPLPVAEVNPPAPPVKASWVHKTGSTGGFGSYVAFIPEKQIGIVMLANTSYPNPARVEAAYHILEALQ
Chain of Pa-AmpC (P24735 27-397): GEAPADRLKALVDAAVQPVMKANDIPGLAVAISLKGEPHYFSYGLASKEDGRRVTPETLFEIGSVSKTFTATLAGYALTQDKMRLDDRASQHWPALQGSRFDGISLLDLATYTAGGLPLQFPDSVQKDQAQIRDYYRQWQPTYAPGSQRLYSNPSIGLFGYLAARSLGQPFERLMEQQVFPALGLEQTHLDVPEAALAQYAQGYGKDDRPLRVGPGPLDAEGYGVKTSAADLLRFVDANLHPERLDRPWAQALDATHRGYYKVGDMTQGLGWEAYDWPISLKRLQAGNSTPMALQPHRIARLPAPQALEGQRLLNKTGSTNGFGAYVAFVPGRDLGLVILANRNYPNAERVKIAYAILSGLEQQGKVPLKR
Chain of CTX-M-14 (Q9L5C7 29-291, species assumed): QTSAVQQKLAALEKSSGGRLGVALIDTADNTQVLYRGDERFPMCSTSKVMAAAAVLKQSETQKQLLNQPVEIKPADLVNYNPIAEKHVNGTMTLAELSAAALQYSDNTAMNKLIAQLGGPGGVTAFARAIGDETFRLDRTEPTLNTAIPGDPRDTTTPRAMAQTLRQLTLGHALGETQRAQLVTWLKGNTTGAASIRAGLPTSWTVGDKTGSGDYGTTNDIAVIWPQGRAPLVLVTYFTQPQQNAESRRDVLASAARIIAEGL
Chain of NDM-1 (C7C422 29-270, looked up, species assumed): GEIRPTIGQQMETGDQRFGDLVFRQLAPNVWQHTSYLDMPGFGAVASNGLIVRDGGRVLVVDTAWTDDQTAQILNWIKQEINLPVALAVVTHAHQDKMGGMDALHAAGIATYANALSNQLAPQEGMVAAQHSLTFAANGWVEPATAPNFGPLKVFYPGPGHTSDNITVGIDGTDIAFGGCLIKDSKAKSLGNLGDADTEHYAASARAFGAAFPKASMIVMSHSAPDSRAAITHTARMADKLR
Chain of OXA-48 (Q6XEC0 23-265, looked up): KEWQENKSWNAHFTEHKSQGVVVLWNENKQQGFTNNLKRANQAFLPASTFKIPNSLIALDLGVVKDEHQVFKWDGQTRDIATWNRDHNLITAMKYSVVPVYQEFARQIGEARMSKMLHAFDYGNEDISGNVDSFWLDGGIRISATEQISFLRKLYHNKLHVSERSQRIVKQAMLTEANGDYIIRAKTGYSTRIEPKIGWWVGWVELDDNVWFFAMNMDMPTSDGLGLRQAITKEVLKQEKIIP
Chain of IMP-1 (P52699 19-246, looked up, species assumed): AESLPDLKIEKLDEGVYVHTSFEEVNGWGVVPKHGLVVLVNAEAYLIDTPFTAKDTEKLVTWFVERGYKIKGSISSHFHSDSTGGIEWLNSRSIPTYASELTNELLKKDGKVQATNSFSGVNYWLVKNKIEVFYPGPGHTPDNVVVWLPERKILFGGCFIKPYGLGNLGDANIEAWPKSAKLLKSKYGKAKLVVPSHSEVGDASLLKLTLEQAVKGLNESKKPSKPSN
Chain of SHV-12 (P0AD64 22-286 L31Q/G234S/E235K): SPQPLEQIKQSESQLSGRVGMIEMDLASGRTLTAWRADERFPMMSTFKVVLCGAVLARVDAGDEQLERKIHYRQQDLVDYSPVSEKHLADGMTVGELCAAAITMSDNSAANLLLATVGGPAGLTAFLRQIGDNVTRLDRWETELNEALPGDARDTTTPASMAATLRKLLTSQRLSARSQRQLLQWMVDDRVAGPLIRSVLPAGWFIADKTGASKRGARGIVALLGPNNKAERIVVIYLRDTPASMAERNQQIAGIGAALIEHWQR

Row | % of initial area ratio at t = 0 min [11] | % of initial area ratio at t = 5 min [11] | % of initial area ratio at t = 10 min [11] | % of initial area ratio at t = 30 min [11] | Structure (SMILES) | Ki [1] | Ki [2] | Ki [3] | Ki [4] | Ki [5] | Ki [6] | Ki [7] | Ki [8] | Ki [9] | Ki [10] | Average % of initial area ratio at t = 0 min [12] | Average % of initial area ratio at t = 5 min [12] | Average % of initial area ratio at t = 10 min [12] | Average % of initial area ratio at t = 30 min [12] | half-life at 1 μM [12]
1 | – | – | – | – | COc1ccc2c(c1C(=O)O)OB(O)C1C2[C@H]2C=C[C@@H]1C2 (stereo partly drawn) [Compound 6, (7R,10R)-6-hydroxy-3-methoxy-6a,7,10,10a-tetrahydro-6H-7,10-methanodibenzo[c,e][1,2]oxaborinine-4-carboxylic acid] | > 1000 nM | 100 to 1000 nM | < 100 nM | < 100 nM | < 100 nM | < 100 nM | 100 to 1000 nM | 100 to 1000 nM | > 1000 nM | > 1000 nM | – | – | – | – | –
2 | – | – | – | – | COc1ccc2c(c1C(=O)O)OB(O)C1C2[C@H]2CC[C@@H]1C2 (stereo partly drawn) [Compound 7, (7R,10S)-6-hydroxy-3-methoxy-6a,7,8,9,10,10a-hexahydro-6H-7,10-methanodibenzo[c,e][1,2]oxaborinine-4-carboxylic acid] | < 100 nM | 100 to 1000 nM | < 100 nM | < 100 nM | < 100 nM | < 100 nM | < 100 nM | < 100 nM | < 100 nM | < 100 nM | – | – | – | – | –
3 | – | – | – | – | O=C(O)c1cccc2c1OB(O)C1CC21 (stereo not shown) [Compound 10, 2-Hydroxy-1a,7b-dihydro-1H-cyclopropa[c][1,2]benzoxaborinine-4-carboxylic acid] | < 100 nM | < 100 nM | < 100 nM | < 100 nM | < 100 nM | < 100 nM | < 100 nM | < 100 nM | < 100 nM | 100 to 1000 nM | – | – | – | – | –
4 | – | – | – | – | COc1ccc2c(c1C(=O)O)OB(O)CC21CC1 [Compound 11, 2-hydroxy-7-methoxy-spiro[3H-1,2-benzoxaborinine-4,1′-cyclopropane]-8-carboxylic acid] | < 100 nM | < 100 nM | < 100 nM | < 100 nM | < 100 nM | < 100 nM | < 100 nM | 100 to 1000 nM | < 100 nM | 100 to 1000 nM | – | – | – | – | –
5 | 100% | 86.8% | 77.2% | 38.7% | O=C(OCOC(=O)c1c(F)ccc2c1OB(O)[C@@H]1C[C@H]21)OC1COC1 [Compound 32, Oxetan-3-yloxycarbonyloxymethyl (1aR,7bS)-5-fluoro-2-hydroxy-1a,7b-dihydro-1H-cyclopropa[c][1,2]benzoxaborinine-4-carboxylate] | – | – | – | – | – | – | – | – | – | – | – | – | – | – | –
6 | 100% | 48.4% | 15.4% | 0% | Cc1oc(=O)oc1COC(=O)c1c(F)ccc2c1OB(O)[C@@H]1C[C@H]21 [Compound 33, (5-Methyl-2-oxo-1,3-dioxol-4-yl)methyl (1aR,7bS)-5-fluoro-2-hydroxy-1a,7b-dihydro-1H-cyclopropa[c][1,2]benzoxaborinine-4-carboxylate] | – | – | – | – | – | – | – | – | – | – | – | – | – | – | –
7 | 100% | 69.3% | 59.4% | 41.1% | O=C(OCOC(=O)C1CCOCC1)c1c(F)ccc2c1OB(O)[C@@H]1C[C@H]21 [Compound 39, Tetrahydropyran-4-carbonyloxymethyl (1aR,7bS)-5-fluoro-2-hydroxy-1a,7b-dihydro-1H-cyclopropa[c][1,2]benzoxaborinine-4-carboxylate] | – | – | – | – | – | – | – | – | – | – | – | – | – | – | –
8 | 100% | 58.6% | 34.5% | 2.9% | COCC(=O)OCOC(=O)c1c(F)ccc2c1OB(O)[C@@H]1C[C@H]21 [Compound 43, (2-Methoxyacetyl)oxymethyl (1aR,7bS)-5-fluoro-2-hydroxy-1a,7b-dihydro-1H-cyclopropa[c][1,2]benzoxaborinine-4-carboxylate] | – | – | – | – | – | – | – | – | – | – | 100% | 64.4% | 44.6% | 0.6% | 4 min

Row | Structure (SMILES) | % of initial area ratio at t = 0 min [11] | % of initial area ratio at t = 5 min [11] | % of initial area ratio at t = 10 min [11] | % of initial area ratio at t = 30 min [11] | Ki [1] | Ki [2] | Ki [3] | Ki [4] | Ki [5] | Ki [6] | Ki [7] | Ki [8] | Ki [9] | Ki [10] | Average % of initial area ratio at t = 0 min [12] | Average % of initial area ratio at t = 5 min [12] | Average % of initial area ratio at t = 10 min [12] | Average % of initial area ratio at t = 30 min [12] | half-life at 1 μM [12]
9 | CC(=O)OCC(=O)OCOC(=O)c1c(F)ccc2c1OB(O)[C@@H]1C[C@H]21 [Compound 42, (2-Acetoxyacetyl)oxymethyl (1aR,7bS)-5-fluoro-2-hydroxy-1a,7b-dihydro-1H-cyclopropa[c][1,2]benzoxaborinine-4-carboxylate] | 100% | 29.1% | 8.1% | 0% | – | – | – | – | – | – | – | – | – | – | 100% | 27.1% | 10.3% | 0.4% | 4 min
